Source: the supplement of paper PMC10307832

Assays:
Assay in all cases: relative viability (nuclei count vs DMSO), 5 days (fraction); higher = more cells survive
[1] = compound: CC1=CN2C(=O)C=C(N=C2C(=C1)C(C)NC3=CC=CC=C3)N4CCOCC4 [TGX 221] + CCNC(=O)c1noc(-c2cc(C(C)C)c(O)cc2O)c1-c1ccc(CN2CCOCC2)cc1 [Luminespib] (partner 0.01 µM)
In short: (§1)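 Relative viability divides the nuclei count in treated wells by that in vehicle wells. Lung cancer cell lines were seeded in 1536-well plates, dosed by pin tool the next day, and fixed and stained after 5 days in one step with final 0.05% Triton X-100, 1% formaldehyde and 1 ug/ml Hoechst. Dosing was a single drug or a fixed anchor-drug dose plus five library-drug doses (not always all listed) in √10 steps, and values are medians of duplicate plates imaged at 4×.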

[2] = compound: O=C(CCCCCCNC(=O)c1cnc(N(c2ccccc2)c2ccccc2)nc1)NO [Ricolinostat] + CS(=O)(=O)CCNCc1ccc(-c2ccc3ncnc(Nc4ccc(OCc5cccc(F)c5)c(Cl)c4)c3c2)o1 [Lapatinib] (partner 2 µM)
In short: as §1

[3] = compound: CC1=CN2C(=O)C=C(N=C2C(=C1)C(C)NC3=CC=CC=C3)N4CCOCC4 [TGX 221] + O=C(c1cc(Cc2n[nH]c(=O)c3ccccc23)ccc1F)N1CCN(C(=O)C2CC2)CC1 [Olaparib] (partner 8 µM)
In short: as §1

[4] = compound: O=C(CCCCCCNC(=O)c1cnc(N(c2ccccc2)c2ccccc2)nc1)NO [Ricolinostat] + Nc1ncn([C@H]2C[C@H](O)[C@@H](CO)O2)c(=O)n1 [Decitabine] (partner 2 µM)
In short: as §1

Cell Line | relative viability ([1]; first compound 0.08 µM) | relative viability ([1]; first compound 0.253 µM) | relative viability ([1]; first compound 0.8 µM) | relative viability ([1]; first compound 2.53 µM) | relative viability ([1]; first compound 8 µM) | relative viability ([2]; first compound 0.08 µM) | relative viability ([2]; first compound 0.253 µM) | relative viability ([2]; first compound 0.8 µM) | relative viability ([2]; first compound 2.53 µM) | relative viability ([3]; first compound 0.08 µM) | relative viability ([3]; first compound 0.253 µM) | relative viability ([3]; first compound 0.8 µM) | relative viability ([3]; first compound 2.53 µM) | relative viability ([3]; first compound 8 µM) | relative viability ([4]; first compound 0.08 µM) | relative viability ([4]; first compound 0.253 µM) | relative viability ([4]; first compound 0.8 µM) | relative viability ([4]; first compound 2.53 µM)
NCI-H1563 | 0.499 | 0.525 | 0.538 | 0.515 | 0.523 | 0.898 | 0.927 | 0.97 | 0.834 |  |  |  |  |  |  |  |  | 
NCI-H1355 | 0.713 | 0.59 | 0.674 | 0.588 | 0.621 |  | 1.01 | 1 | 0.863 | 0.714 | 0.669 | 0.718 | 0.668 | 0.619 | 0.332 | 0.331 | 0.36 | 0.328
NCI-H2228 | 0.123 | 0.146 | 0.108 | 0.136 | 0.153 | 0.876 | 0.88 | 1.11 | 0.574 | 0.557 | 0.529 | 0.471 | 0.532 | 0.541 |  |  |  | 
LXF-289 | 0.667 | 0.686 | 0.77 | 0.47 | 0.513 | 0.847 | 0.907 | 0.897 | 0.731 | 1.02 | 1.03 | 1.09 | 1.03 | 1.11 | 0.407 | 0.366 | 0.384 | 0.347
NCI-H2085 | 0.518 | 0.361 | 0.335 | 0.223 | 0.319 |  | 0.679 | 0.715 | 0.573 | 0.802 | 0.75 | 0.684 | 0.536 | 0.439 |  | 0.51 | 0.557 | 0.512
NCI-H2342 | 0.919 | 0.652 | 0.584 | 0.544 | 0.607 |  |  |  |  | 0.424 | 0.417 | 0.404 | 0.466 | 0.463 | 0.628 | 0.719 | 0.784 | 0.718
EMC-BAC-2 | 1.12 | 1.08 | 1.16 | 1.11 | 1.08 | 0.784 | 0.895 | 0.894 | 0.676 | 0.463 | 0.453 | 0.526 | 0.418 | 0.472 | 0.796 | 0.938 | 0.901 | 0.722
IA-LM |  |  |  |  |  |  | 0.841 | 0.542 | 0.398 | 0.866 | 0.857 | 0.846 | 0.858 | 0.799 |  |  |  | 
A549 |  |  |  |  |  | 0.977 | 0.887 | 0.859 | 0.72 | 0.375 | 0.318 | 0.0939 | 0.301 | 0.422 | 0.314 | 0.259 | 0.306 | 0.246
NCI-H3122 | 0.1 | 0.0831 | 0.0649 | 0.0793 | 0.116 | 0.972 | 1.01 | 1.07 | 0.973 | 0.596 | 0.625 | 0.596 | 0.562 | 0.643 | 0.388 | 0.404 | 0.443 | 0.529
LC-2-ad | 0.957 | 0.941 | 1.18 | 1.01 | 0.907 | 0.883 | 0.943 | 0.98 | 0.678 | 0.732 | 0.69 | 0.832 | 0.745 | 0.73 | 0.776 | 0.784 | 0.842 | 0.835
NCI-H1734 | 0.232 | 0.178 | 0.202 | 0.17 | 0.18 | 1 | 1.05 | 1.02 | 0.891 | 0.557 | 0.554 | 0.616 | 0.576 | 0.523 | 0.486 | 0.497 | 0.519 | 0.47
NCI-H1975 | 0.151 | 0.2 | 0.138 | 0.2 | 0.145 | 0.878 | 0.914 |  | 0.664 | 0.757 | 0.747 | 0.802 | 0.679 | 0.659 | 0.371 | 0.394 | 0.382 | 0.379
NCI-H1793 | 0.198 | 0.265 | 0.174 | 0.127 | 0.155 |  | 0.739 | 0.61 | 0.895 | 0.786 | 0.507 | 0.612 | 0.414 | 0.502 | 0.423 | 0.514 | 0.56 | 0.499
NCI-H1299 |  |  |  |  |  | 0.941 | 0.871 | 0.902 | 0.895 | 0.971 | 0.952 | 1.02 | 1.03 | 0.943 |  |  |  | 
HCC-78 |  |  |  |  |  |  | 0.803 | 0.699 | 0.385 | 0.801 | 0.69 | 0.753 | 0.618 | 0.623 |  | 0.7 | 0.602 | 0.585
SW 900 | 0.18 | 0.167 | 0.153 | 0.132 | 0.148 |  |  |  |  |  | 0.787 | 0.701 | 0.578 | 0.562 | 0.517 | 0.433 | 0.368 | 0.401
NCI-H1703 |  |  |  |  |  | 1.03 | 0.928 | 1.06 | 1.07 | 0.449 | 0.462 | 0.389 | 0.396 | 0.255 |  |  |  | 
NCI-H522 | 1.09 | 1.04 | 1.01 | 1.11 | 1.42 |  |  |  |  | 0.563 | 0.628 | 0.729 | 0.616 | 0.645 | 0.641 | 0.702 | 0.714 | 0.642
NCI-H1623 | 0.427 | 0.457 | 0.471 | 0.463 | 0.438 |  |  |  |  |  |  |  |  |  |  |  |  | 
Calu-6 |  |  |  |  |  | 0.926 | 1.03 | 1.01 | 0.785 | 0.55 | 0.513 | 0.549 | 0.536 | 0.512 |  |  |  | 
EBC-1 |  |  |  |  |  | 0.206 | 0.207 | 0.221 | 0.215 | 0.664 | 0.697 | 0.616 | 0.676 | 0.55 |  |  |  | 
HCC-366 |  |  |  |  |  | 1.02 | 1.02 | 0.918 | 0.363 | 0.331 | 0.303 | 0.407 | 0.344 | 0.357 | 0.332 | 0.344 | 0.342 | 0.329
NCI-H441 | 0.554 | 0.307 | 0.364 | 0.312 | 0.278 |  |  |  |  | 0.578 | 0.571 | 0.515 | 0.524 | 0.589 | 0.28 | 0.227 | 0.202 | 0.214
